Assay results published in patent publication US8877759B2, “Aminopyrazines as ATR kinase inhibitors” (Vertex Pharnaceuticals Incorporated, priority 2011, dated 2014).
Like-named read-outs stand apart in the source and are kept apart here.

Target: T1, full-length ATR (Homo sapiens, UniProt Q13535)
T1 construct: Assays were carried out at 25° C. in the presence of 5 nM full-length ATR
Experiment: ATR Inhibition Assay (radioactive-phosphate incorporation)
Type: biochemical
Protocol: Compounds were screened for their ability to inhibit ATR kinase using a radioactive-phosphate incorporation assay. Assays were carried out in a mixture of 50 mM Tris/HCl (pH 7.5), 10 mM MgCl2 and 1 mM DTT.
Assays were carried out at 25° C. in the presence of 5 nM full-length ATR. An assay stock buffer solution was prepared containing all of the reagents listed above, with the exception of ATP and the test compound of interest. […] The plate was pre-incubated for 10 minutes at 25° C. and the reaction initiated by addition of 15 μL [γ-33P]ATP (final concentration 10 μM).
The reaction was stopped after […] by the addition of 30 μL 0.1M phosphoric acid containing 2 mM ATP. A multiscreen phosphocellulose filter 96-well plate (Millipore, Cat no. MAPHN0B50) was pretreated with 100 μL 0.2M phosphoric acid prior to the addition of 45 μL of the stopped assay mixture. The plate was washed with 5×200 μL 0.2M phosphoric acid.
After removing mean background values for all of the data points, Ki(app) data were calculated from non-linear regression analysis of the initial rate data using the Prism software package (GraphPad Prism version 3.0cx for Macintosh, GraphPad Software, San Diego Calif., USA).

[1] = Ki(app), 5 nM full-length ATR, 10 μM [γ-33P]ATP, 800 μM target peptide, 25° C.

T1 sequence (Q13535 whole entry): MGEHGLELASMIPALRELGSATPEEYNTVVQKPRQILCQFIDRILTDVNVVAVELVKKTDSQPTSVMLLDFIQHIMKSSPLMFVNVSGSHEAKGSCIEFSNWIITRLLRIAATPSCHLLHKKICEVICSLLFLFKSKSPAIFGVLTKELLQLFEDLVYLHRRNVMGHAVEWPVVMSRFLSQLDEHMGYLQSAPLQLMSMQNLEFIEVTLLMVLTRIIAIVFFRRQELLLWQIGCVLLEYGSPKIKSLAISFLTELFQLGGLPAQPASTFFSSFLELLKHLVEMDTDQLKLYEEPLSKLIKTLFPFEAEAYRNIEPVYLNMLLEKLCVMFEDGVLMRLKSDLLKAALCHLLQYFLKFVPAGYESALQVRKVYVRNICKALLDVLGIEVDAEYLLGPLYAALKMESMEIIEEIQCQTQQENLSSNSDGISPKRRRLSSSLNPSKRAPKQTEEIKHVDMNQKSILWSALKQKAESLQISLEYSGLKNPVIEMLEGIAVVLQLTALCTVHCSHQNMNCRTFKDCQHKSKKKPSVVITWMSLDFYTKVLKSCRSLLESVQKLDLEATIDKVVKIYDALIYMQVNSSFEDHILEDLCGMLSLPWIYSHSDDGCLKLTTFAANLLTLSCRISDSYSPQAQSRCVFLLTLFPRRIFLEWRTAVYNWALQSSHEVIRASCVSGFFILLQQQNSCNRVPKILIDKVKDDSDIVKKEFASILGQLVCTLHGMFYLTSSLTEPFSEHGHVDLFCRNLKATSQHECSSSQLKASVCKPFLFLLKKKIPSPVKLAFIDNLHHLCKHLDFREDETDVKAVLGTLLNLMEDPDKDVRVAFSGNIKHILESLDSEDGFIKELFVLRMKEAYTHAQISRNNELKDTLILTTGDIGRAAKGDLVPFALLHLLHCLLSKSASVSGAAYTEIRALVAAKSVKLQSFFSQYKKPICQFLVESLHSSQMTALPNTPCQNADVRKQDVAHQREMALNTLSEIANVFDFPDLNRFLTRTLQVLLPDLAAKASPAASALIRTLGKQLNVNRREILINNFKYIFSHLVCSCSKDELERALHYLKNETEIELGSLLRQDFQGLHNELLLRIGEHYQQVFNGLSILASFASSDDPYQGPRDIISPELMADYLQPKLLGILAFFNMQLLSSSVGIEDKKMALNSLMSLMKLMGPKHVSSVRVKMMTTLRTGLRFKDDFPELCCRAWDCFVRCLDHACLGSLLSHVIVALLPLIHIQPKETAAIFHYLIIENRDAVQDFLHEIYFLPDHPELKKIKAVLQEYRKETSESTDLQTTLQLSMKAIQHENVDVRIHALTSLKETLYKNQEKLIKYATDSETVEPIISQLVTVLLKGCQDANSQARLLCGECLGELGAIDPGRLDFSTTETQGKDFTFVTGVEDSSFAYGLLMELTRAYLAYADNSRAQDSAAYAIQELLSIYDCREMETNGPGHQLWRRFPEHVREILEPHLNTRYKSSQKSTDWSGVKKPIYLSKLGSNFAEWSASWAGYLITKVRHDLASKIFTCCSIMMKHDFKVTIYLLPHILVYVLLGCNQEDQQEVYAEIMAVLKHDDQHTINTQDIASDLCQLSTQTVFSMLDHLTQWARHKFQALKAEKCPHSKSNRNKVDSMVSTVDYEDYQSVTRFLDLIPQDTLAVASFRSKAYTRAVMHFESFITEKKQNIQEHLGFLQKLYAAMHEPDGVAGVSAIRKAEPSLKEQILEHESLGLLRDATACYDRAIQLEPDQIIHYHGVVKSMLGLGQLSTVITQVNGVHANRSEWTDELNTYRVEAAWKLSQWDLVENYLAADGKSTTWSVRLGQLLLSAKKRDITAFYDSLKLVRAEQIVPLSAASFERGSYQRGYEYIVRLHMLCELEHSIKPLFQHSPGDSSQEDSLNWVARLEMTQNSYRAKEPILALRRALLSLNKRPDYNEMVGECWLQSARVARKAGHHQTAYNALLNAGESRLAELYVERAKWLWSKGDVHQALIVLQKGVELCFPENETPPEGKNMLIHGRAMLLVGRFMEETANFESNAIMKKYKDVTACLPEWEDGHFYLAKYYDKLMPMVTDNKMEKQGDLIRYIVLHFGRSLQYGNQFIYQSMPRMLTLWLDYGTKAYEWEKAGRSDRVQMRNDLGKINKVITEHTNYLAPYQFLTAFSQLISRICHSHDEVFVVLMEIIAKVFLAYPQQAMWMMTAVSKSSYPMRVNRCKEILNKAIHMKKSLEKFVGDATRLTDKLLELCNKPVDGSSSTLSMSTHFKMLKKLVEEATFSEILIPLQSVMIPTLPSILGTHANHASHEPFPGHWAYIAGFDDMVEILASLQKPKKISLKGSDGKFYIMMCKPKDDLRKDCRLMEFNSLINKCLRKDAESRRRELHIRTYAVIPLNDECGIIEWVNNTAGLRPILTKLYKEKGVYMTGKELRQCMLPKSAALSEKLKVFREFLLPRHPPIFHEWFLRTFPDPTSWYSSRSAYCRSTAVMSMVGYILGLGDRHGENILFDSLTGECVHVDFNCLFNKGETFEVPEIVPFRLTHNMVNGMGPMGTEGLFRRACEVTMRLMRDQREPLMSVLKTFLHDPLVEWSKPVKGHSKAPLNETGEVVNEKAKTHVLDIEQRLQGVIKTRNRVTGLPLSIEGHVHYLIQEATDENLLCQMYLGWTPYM

Compound | Ki [nM] | further results
CNCc1ccc(-c2cc(-c3nc(-c4ccnc(C(C)(C)C#N)c4)cnc3N)on2)cc1 [Compound I-1, 2-[4-[5-amino-6-[3-[4-(methylaminomethyl)phenyl]isoxazol-5-yl]pyrazin-2-yl]-2-pyridyl]-2-methyl-propanenitrile] | < 1 | –
CCC(C#N)(CC)c1cc(-c2cnc(N)c(-c3cc(-c4ccc(CNC)cc4)no3)n2)ccn1 [Compound I-2, 2-[4-[5-amino-6-[3-[4-(methylaminomethyl)phenyl]isoxazol-5-yl]pyrazin-2-yl]-2-pyridyl]-2-ethyl-butanenitrile] | < 1 | –
CCC(C#N)c1cc(-c2cnc(N)c(-c3cc(-c4ccc(CNC)cc4)no3)n2)ccn1 (stereo not drawn) [Compound I-3, 2-[4-[5-amino-6-[3-[4-(methylaminomethyl)phenyl]isoxazol-5-yl]pyrazin-2-yl]-2-pyridyl]butanenitrile] | < 1 | –
CNCc1ccc(-c2nnc(-c3nc(-c4ccnc(C(C)(C)C#N)c4)cnc3N)o2)cc1 [Compound I-4, 2-[4-[5-amino-6-[5-[4-(methylaminomethyl)phenyl]-1,3,4-oxadiazol-2-yl]pyrazin-2-yl]-2-pyridyl]-2-methyl-propanenitrile] | < 1 | –
CC(C)(C#N)c1cc(-c2cnc(N)c(-c3cc(-c4ccccc4)no3)n2)ccn1 [Compound I-5, 2-[4-[5-amino-6-(3-phenylisoxazol-5-yl)pyrazin-2-yl]-2-pyridyl]-2-methyl-propanenitrile] | < 1 | –
N#CC1(c2cc(-c3cnc(N)c(-c4cc(-c5ccccc5)no4)n3)ccn2)CCNCC1 [Compound I-6, 4-[4-[5-amino-6-(3-phenylisoxazol-5-yl)pyrazin-2-yl]-2-pyridyl]piperidine-4-carbonitrile] | – | ATR Ki [1]: +++ (Compounds with a Ki value >5 nM but ≦1 nM are marked with “+++.”)
N#CC1(c2cc(-c3cnc(N)c(-c4cc(-c5ccccc5)no4)n3)ccn2)CCOCC1 [Compound I-7, 4-[4-[5-amino-6-(3-phenylisoxazol-5-yl)pyrazin-2-yl]-2-pyridyl]tetrahydropyran-4-carbonitrile] | < 1 | –
Cc1ccsc1-c1cc(-c2nc(-c3ccnc(C(C)(C)C#N)c3)cnc2N)on1 [Compound I-8, 2-[4-[5-amino-6-[3-(3-methyl-2-thienyl)isoxazol-5-yl]pyrazin-2-yl]-2-pyridyl]-2-methyl-propanenitrile] | < 1 | –
CNCc1ccc(-c2cc(-c3nc(-c4ccnc(C5(C#N)CCOCC5)c4)cnc3N)on2)cc1 [Compound I-9, 4-[4-[5-amino-6-[3-[4-(methylaminomethyl)phenyl]isoxazol-5-yl]pyrazin-2-yl]-2-pyridyl]tetrahydropyran-4-carbonitrile] | < 1 | –
CNCc1ccc(-c2cc(-c3nc(-c4ccnc(C(C)(C)C(N)=O)c4)cnc3N)on2)cc1 [Compound I-10, 2-[4-[5-amino-6-[3-[4-(methylaminomethyl)phenyl]isoxazol-5-yl]pyrazin-2-yl]-2-pyridyl]-2-methyl-propanamide] | < 1 | –
CNCc1ccc(-c2cc(-c3nc(-c4ccnc(C(C)(C)C(=O)N(C)C)c4)cnc3N)on2)cc1 [Compound I-11, 2-[4-[5-amino-6-[3-[4-(methylaminomethyl)phenyl]isoxazol-5-yl]pyrazin-2-yl]-2-pyridyl]-N,N,2-trimethyl-propanamide] | < 1 | –
N#CC1(c2cc(-c3cnc(N)c(-c4cc(-c5ccccc5)no4)n3)ccn2)CCCNC1 (stereo not drawn) [Compound I-12, 3-[4-[5-amino-6-(3-phenylisoxazol-5-yl)pyrazin-2-yl]-2-pyridyl]piperidine-3-carbonitrile] | – | ATR Ki [1]: +++ (Compounds with a Ki value >5 nM but ≦1 nM are marked with “+++.”)
CNCc1ccc(-c2cc(-c3nc(-c4ccnc(C5(C(N)=O)CCOCC5)c4)cnc3N)on2)cc1 [Compound I-13, 4-[4-[5-amino-6-[3-[4-(methylaminomethyl)phenyl]isoxazol-5-yl]pyrazin-2-yl]-2-pyridyl]tetrahydropyran-4-carboxamide] | < 1 | –
CNCc1ccc(-c2cc(-c3nc(-c4ccnc(C(C)(C)S(C)(=O)=O)c4)cnc3N)on2)cc1 [Compound I-14, 3-[3-[4-(methylaminomethyl)phenyl]isoxazol-5-yl]-5-[2-(1-methyl-1-methylsulfonyl-ethyl)-4-pyridyl]pyrazin-2-amine] | < 1 | –
CNCc1ccc(-c2cc(-c3nc(-c4ccnc(C(C)S(C)(=O)=O)c4)cnc3N)on2)cc1 (stereo not drawn) [Compound I-15, 3-[3-[4-(methylaminomethyl)phenyl]isoxazol-5-yl]-5-[2-(1-methylsulfonylethyl)-4-pyridyl]pyrazin-2-amine] | < 1 | –
CC(C)(C#N)c1cc(-c2cnc(N)c(-c3cc(-c4ccc(C(N)CF)cc4)no3)n2)ccn1 (stereo not drawn) [Compound I-16, 2-[4-[5-amino-6-[3-[4-(1-amino-2-fluoro-ethyl)phenyl]isoxazol-5-yl]pyrazin-2-yl]-2-pyridyl]-2-methyl-propanenitrile] | < 1 | –
CC(C)(C#N)c1cc(-c2cnc(N)c(-c3cc(-c4ccc(CN[C@@H]5CCOC5)cc4)no3)n2)ccn1 [Compound I-17, 2-[4-[5-amino-6-[3-[4-[[[(3R)-tetrahydrofuran-3-yl]amino]methyl]phenyl]isoxazol-5-yl]pyrazin-2-yl]-2-pyridyl]-2-methyl-propanenitrile] | < 1 | –
CC(C)(C#N)c1cc(-c2cnc(N)c(-c3cc(-c4ccc(CNC5COC5)cc4)no3)n2)ccn1 [Compound I-18, 2-[4-[5-amino-6-[3-[4-[(oxetan-3-ylamino)methyl]phenyl]isoxazol-5-yl]pyrazin-2-yl]-2-pyridyl]-2-methyl-propanenitrile] | < 1 | –
CC(C)(C#N)c1cc(-c2cnc(N)c(-c3cc(-c4ccc(CN[C@H]5CCOC5)cc4)no3)n2)ccn1 [Compound I-19, 2-[4-[5-amino-6-[3-[4-[[[(3S)-tetrahydrofuran-3-yl]amino]methyl]phenyl]isoxazol-5-yl]pyrazin-2-yl]-2-pyridyl]-2-methyl-propanenitrile] | – | Ki [1]: < 1 nM
CC(C)(C(=O)N1CCNCC1)c1cc(-c2cnc(N)c(-c3cc(-c4ccccc4)no3)n2)ccn1 [Compound I-20, 2-[4-[5-amino-6-(3-phenylisoxazol-5-yl)pyrazin-2-yl]-2-pyridyl]-2-methyl-1-piperazin-1-yl-propan-1-one] | 5 to 20 | –
CC(C)(C(=O)NCCN1CCOCC1)c1cc(-c2cnc(N)c(-c3cc(-c4ccccc4)no3)n2)ccn1 [Compound I-21, 2-[4-[5-amino-6-(3-phenylisoxazol-5-yl)pyrazin-2-yl]-2-pyridyl]-2-methyl-N-(2-morpholinoethyl)propanamide] | 5 to 20 | –
CC(C)(c1cc(-c2cnc(N)c(-c3cc(-c4ccccc4)no3)n2)ccn1)S(C)(=O)=O [Compound I-22, 5-[2-(1-methyl-1-methylsulfonyl-ethyl)-4-pyridyl]-3-(3-phenylisoxazol-5-yl)pyrazin-2-amine] | < 1 | –
CC(C)(c1cc(-c2cnc(N)c(-c3cc(-c4ccccc4)no3)n2)ccn1)S(=O)(=O)C1CCNCC1 [Compound I-23, 5-[2-[1-methyl-1-(4-piperidylsulfonyl)ethyl]-4-pyridyl]-3-(3-phenylisoxazol-5-yl)pyrazin-2-amine] | – | ATR Ki [1]: +++ (Compounds with a Ki value >5 nM but ≦1 nM are marked with “+++.”)
Cc1ccsc1-c1cc(-c2nc(-c3ccnc(C4(C#N)CCNCC4)c3)cnc2N)on1 [Compound I-24, 4-[4-[5-amino-6-[3-(3-methyl-2-thienyl)isoxazol-5-yl]pyrazin-2-yl]-2-pyridyl]piperidine-4-carbonitrile] | – | ATR Ki [1]: +++ (Compounds with a Ki value >5 nM but ≦1 nM are marked with “+++.”)
Cc1ccccc1-c1cc(-c2nc(-c3ccnc(C4(C#N)CCNCC4)c3)cnc2N)on1 [Compound I-25, 4-[4-[5-amino-6-[3-(o-tolyl)isoxazol-5-yl]pyrazin-2-yl]-2-pyridyl]piperidine-4-carbonitrile] | 5 to 20 | –
N#CC1(c2cc(-c3cnc(N)c(-c4cc(-c5ccccc5O)no4)n3)ccn2)CCNCC1 [Compound I-26, 4-[4-[5-amino-6-[3-(2-hydroxyphenyl)isoxazol-5-yl]pyrazin-2-yl]-2-pyridyl]piperidine-4-carbonitrile] | – | ATR Ki [1]: +++ (Compounds with a Ki value >5 nM but ≦1 nM are marked with “+++.”)
COc1ccccc1-c1cc(-c2nc(-c3ccnc(C4(C#N)CCNCC4)c3)cnc2N)on1 [Compound I-27, 4-[4-[5-amino-6-[3-(2-methoxyphenyl)isoxazol-5-yl]pyrazin-2-yl]-2-pyridyl]piperidine-4-carbonitrile] | – | ATR Ki [1]: +++ (Compounds with a Ki value >5 nM but ≦1 nM are marked with “+++.”)
N#CC1(c2cc(-c3cnc(N)c(-c4cc(-c5ccccc5F)no4)n3)ccn2)CCNCC1 [Compound I-28, 4-(4-(5-amino-6-(3-(2-fluorophenyl)isoxazol-5-yl)pyrazin-2-yl)pyridin-2-yl)piperidine-4-carbonitrile] | – | ATR Ki [1]: +++ (Compounds with a Ki value >5 nM but ≦1 nM are marked with “+++.”)
COc1cccc(C)c1-c1cc(-c2nc(-c3ccnc(C4(C#N)CCNCC4)c3)cnc2N)on1 [Compound I-29, 4-[4-[5-amino-6-[3-(2-methoxy-6-methyl-phenyl)isoxazol-5-yl]pyrazin-2-yl]-2-pyridyl]piperidine-4-carbonitrile] | 20 to 100 | –
N#CC1(c2cc(-c3cnc(N)c(-c4cc(-c5cccs5)no4)n3)ccn2)CCNCC1 [Compound I-30, 4-[4-[5-amino-6-[3-(2-thienyl)isoxazol-5-yl]pyrazin-2-yl]-2-pyridyl]piperidine-4-carbonitrile] | < 1 | –
